From patent US7528144B2, “Molecules and methods for fluorescence microscopy” (WiSys Technology Foundation, Inc., priority 2005, dated 2009) come the findings set out here.

The subject of the series is THP-1 cells. The experiment in a line: Photobleaching under repeated exposures in cells. The class given is cell-based. The following applies: 75-200 nM, repeated CCD exposures (FIG. 25). As to the method:
FIG. 25 depicts (A) InstantLyso LLT-1 at 75 nM in THP-1 cells. Exposures were taken every 30 seconds (with consistent CCD exposure length 7.5 seconds) with blue excitation cube (490 nm maximum).; (B) InstantGolgi McN-1 at 200 nm in THP-1 cells. Exposures were taken with consistent CCD exposure length with purple excitation cube.; (C) InstantLipo Sep-1at 200 nm in THP-1 cells. Exposures were taken with consistent CCD exposure length with purple excitation cube; and (D) Lysotracker Red at 75 nM in THP-1 cells. Exposures were taken every 5 seconds (with consistent CCD exposure length) with green excitation cube. Unretouched, unprocessed images.
The dyes of the present invention hold up well to photobleaching relative to the time needed to take most fluorescence shots (a few seconds).

Regarding `CCCCCCN1C(=O)c2cccc3c(NCCN)ccc(c23)C1=O` [InstantLyso LLT-1, 6-(2-aminoethyl)amino-2-hexyl-1H-benz[de]isoquinoline-1,3-(2H)-dione], the resistance to photobleaching result was “holds up much better than the others”.
